The subject of data set [1] is murine model of intracranial hemorrhage. As to conditions: cited from earlier work. The source says:
The possibility that the apoE mimetic peptide modifies sterile inflammation in the central nervous system is particularly relevant after traumatic brain injury, where glial activation and neuroinflammatory responses exacerbate secondary tissue injury. […] For example, there are a number of limitations inherent to all rodent models of traumatic brain injury. This includes the lissencephalic nature of rodent brains, which precludes testing of higher and more subtle cortical functions that are directly applicable to the clinical setting. Moreoever, rodent brains have reduced ratio of white: grey matter as compared to primates, and thus are not ideal to model the diffuse axonal injury that may occur in the clinical s ...

Data set [2] concerns degenerating neurons in dentate gyrus of TBI mice. The experiment in a line: Fluoro-Jade B staining of degenerating neurons. The format is in vivo, mouse. Particulars: 0.05 mg/kg, 24 hours post-injury, 6 vehicle and 6 CN-105 mice, p < 0.00001. On the procedure: To assess the effects of CN-105 on inflammation, neuronal injury and neuronal loss, immunohistochemical(IHC) staining was performed using the F4/80 antibody(a marker for mature microglia and macrophages; rat monoclonal, 1:10,000; Serotec, Raleigh, NC) and the Fluoro-Jade B stain(a marker of degenerating neurons; Histo-Chem Inc. Jefferson, AR) on days 10 and 1, respectively, after TBI. IHC was performed on separate cohorts of mice from those used in neurobehavioral tests. As previously described, mice were anesthetized, euthanized, and perfused with 30 ml phosphate-buffered saline(PBS) via transcardiac puncture. The brains were then immersed in buffered formalin overnight and saturated with 30% sucrose in buffer. Sagittal sections(40 μm) were sliced on a freezing microtome and collected in cryoprotectant solution. […]
For Fluoro-Jade B, brain sections from 12 TBI mice(6 vehicle and 6 CN-105) containing the dorsal hippocampus(5–6 sections per animal) were examined for degenerating neurons using an epifluorescence microscope(Nikon, Tokyo, Japan) with a medium band blue excitation(Nikon B-2A, 450–490 nm) filter set. […] Degenerating neurons were counted and the total number of Fluoro-Jade B-positive neurons per every eighth brain slice was recorded. […]

For data set [3] the following is noted: mouse, in vivo, iv, 1.92 mg/kg. The protocol:
Pharmacokinetic studies were conducted by Xenobiotic Laboratories(Plainsboro, NJ). Briefly, male CD-1 mice received a single IV bolus dose of [^14C] CN-105 52 μCi/mg(dose of 1.92 mg/kg, and approximately 100 μCi/kg) by tail vein injection. At 0.083, 0.5, 1, 6, 24, and 48 hours post-dose terminal blood samples were collected from 2 animals per timepoint and plasma was isolated for radiometric analysis.
To assess CNS penetration, quantitative whole body autoradiography(QWBA) analysis was performed and areas of interest in blood and brain were compared. The carcasses were frozen in a dry ice/hexane bath and embedded in low viscosity carboxymethylcellulose for sagittal, 30-μm thick sections of low viscosity carboxymethylcellulose-of mouse carcasses were sectioned. Pharmacokinetic data were generated by non-compartmental PK analysis of total radioactivity concentration vs. time profiles for tissues using WinNonlin(version 6.3, Pharsight Corporation, Mountain View, CA).
Selected tissues and areas of interest(AOI) were analyzed using QWBA. The tissues and AOI were analyzed within AIDA software using a region sampling tool. The following parameters were derived for individual subjects: maximum tissue and plasma concentration(Cmax), time of Cmax(tmax), area under the tissue concentration versus time curve from time zero to the last quantifiable tissue concentration(AUC0-t), area under the tissue concentration versus time curve from time zero to 4 hours(AUC0-4), and the apparent terminal half-life(t½). AUC0-4 was calculated using the linear trapezoidal rule. Results for AOIs are expressed in nanogram equivalents of(^14C) CN-105 per gram of tissue(ng equv./g) and were calculated as follows: ng equiv./g is equal to nCi per gram of tissue per nCi/ng of(^14C) CN-105.

This is an account of results in publication PMC5399447, “Neuroprotective pentapeptide CN-105 is associated with reduced sterile inflammation and improved functional outcomes in a traumatic brain injury murine model” (Scientific Reports, 2017).

For Ac-VSRRR-amide [CN-105], the functional outcome in data set [1] (model of intracranial hemorrhage) was “improves functional outcome”. Further, the cerebral edema entry in data set [1] (murine model of intracranial hemorrhage) is recorded as “reduces cerebral edema”. Besides, the “number of Fluoro-Jade B positive neurons, dorsal hippocampus, compared to vehicle” value in data set [2] is recorded as “significant decrease in the number of Fluoro-Jade B positive neurons”. For the same substance, in data set [3], the initial plasma half-life was found to be 29 min, the tmax in serum was 5 min and the “tmax in the brain” value was found to be 30 min.
